Laboratory results as given in patent publication US20230399312A1, “SUBSTITUTED PYRIMIDINES AND METHODS OF USE” (THERAVANCE BIOPHARMA R&D IP, LLC, priority 2020, published 2023).

Key:
[1] = tested on: TGF-β-stimulated SMAD3 phosphorylation in BEAS-2B cells; assay: Cellular ALK5 potency assay, inhibition of TGF-β stimulated pSMAD3 formation in BEAS-2B cells; type: cell-based; conditions: Homo sapiens, pSMAD3, TGF-β 10 ng/mL, read-out: BEAS2B pIC50 (converted)
Procedure, shortened: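 Cells were seeded overnight, rinsed into HEPES/BSA-supplemented HBSS, and dosed with serially diluted compound for 1 h at 37 °C, 5% CO2. TGF-β stimulation (10 ng/mL final) followed for 30 min, then lysis and AlphaLISA pSMAD3 measurement; potency reported as pIC50.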

[2] = target: T1, recombinant human ALK5 (TGF-βR1) protein (Homo sapiens, UniProt P36897); assay: Biochemical ALK5 (TGF-βR1) assay to measure pKi (LANCE Ultra ULight kinase assay); conditions: apparent pKi, converted from pIC50 by Cheng-Prusoff
T1 construct: purchased Life Technologies PR9075A
T1 sequence (P36897 34-503): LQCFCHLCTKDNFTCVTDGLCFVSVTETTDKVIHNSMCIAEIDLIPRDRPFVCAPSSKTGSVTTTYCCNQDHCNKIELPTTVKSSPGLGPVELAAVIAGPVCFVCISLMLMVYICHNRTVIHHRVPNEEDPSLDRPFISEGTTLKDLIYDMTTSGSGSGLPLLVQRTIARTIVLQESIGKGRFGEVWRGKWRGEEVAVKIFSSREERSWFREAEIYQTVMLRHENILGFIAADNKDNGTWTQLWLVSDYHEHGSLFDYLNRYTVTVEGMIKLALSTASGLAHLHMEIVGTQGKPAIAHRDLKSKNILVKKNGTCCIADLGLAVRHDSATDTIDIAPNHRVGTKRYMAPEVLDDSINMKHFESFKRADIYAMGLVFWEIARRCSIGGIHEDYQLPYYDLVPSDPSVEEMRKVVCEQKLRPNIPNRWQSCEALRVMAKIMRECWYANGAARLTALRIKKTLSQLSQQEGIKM
Procedure, shortened: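 Enzyme preincubated with compound for 60 min at room temperature, then reacted with ATP (125 μM as 5× stock) for 60 min at 37 °C. Stopped with EDTA plus Eu-anti-phospho-Topoisomerase 2-alpha (Thr1342) antibody and read by TR-FRET at 665 nm. pIC50 from a 4-parameter fit, converted to pKi by Cheng-Prusoff.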

With `CN(C)C1CCN(c2ccc(Nc3nccc(Nc4ccnc(-c5cc(Cl)c(F)cc5F)n4)n3)cc2)CC1` [Compound 246, N4-[2-(5-chloro-2,4-difluoro-phenyl)pyrimidin-4-yl]-N2-[4-[4-(dimethylamino)-1-piperidyl]phenyl]pyrimidine-2,4-diamine] the IC50 [1] was 25.1 to 158 nM and the Ki [2] was 0.0398 to 0.316 nM.
Work on `Cc1cccc(-c2nccc(Nc3ccnc(Nc4ccc(C)c(CN5CCNCC5)c4)n3)n2)n1` [Compound 247, N2-[4-methyl-3-(piperazin-1-ylmethyl)phenyl]-N4-[2-(6-methyl-2-pyridyl)pyrimidin-4-yl]pyrimidine-2,4-diamine] yielded an IC50 [1] of 25.1 to 158 nM and a Ki [2] of 0.0398 to 0.316 nM.
`Cc1cccc(-c2nccc(Nc3ccnc(Nc4ccc(CN5CCC(C(=O)OC6CCN(C)C6)CC5)cc4)n3)n2)n1` (centres unmarked) [Compound 248, (1-methylpyrrolidin-3-yl) 1-[[4-[[4-[[2-(6-methyl-2-pyridyl)pyrimidin-4-yl]amino]pyrimidin-2-yl]amino]phenyl]methyl] piperidine-4-carboxylate] showed an IC50 [1] of 25.1 to 158 nM and a Ki [2] of 0.0398 to 0.316 nM.
In the case of `Cc1cccc(-c2nccc(Nc3ccnc(Nc4ccc(CN5CCNC(C)(C)C5)cc4)n3)n2)n1` [Compound 249, N2-[4-[(3,3-dimethylpiperazin-1-yl)methyl]phenyl]-N4-[2-(6-methyl-2-pyridyl)pyrimidin-4-yl]pyrimidine-2,4-diamine], the IC50 [1] is reported as 25.1 to 158 nM and the Ki [2] is reported as 0.0398 to 0.316 nM.
Compound `COCCOc1ccc(Nc2nccc(Nc3ccnc(-c4cccc(C)n4)n3)n2)cc1` [Compound 250, N2-[4-(2-methoxyethoxy)phenyl]-N4-[2-(6-methyl-2-pyridyl)pyrimidin-4-yl]pyrimidine-2,4-diamine] has an IC50 [1] of 25.1 to 158 nM and a Ki [2] of 0.398 to 3.16 nM.
For `CNC1CCN(c2ccc(Nc3nccc(Nc4ccnc(-c5cccc(C)n5)n4)n3)cc2)CC1` [Compound 251, N2-[4-[4-(methylamino)-1-piperidyl]phenyl]-N4-[2-(6-methyl-2-pyridyl)pyrimidin-4-yl]pyrimidine-2,4-diamine], the IC50 [1] was 200 to 1260 nM and the Ki [2] was 0.0398 to 0.316 nM.
Work on `COC(=O)Cc1cc(Nc2nccc(Nc3ccnc(-c4cccc(C)n4)n3)n2)ccc1N1CCNCC1` [Compound 252, methyl 2-[5-[[4-[[2-(6-methyl-2-pyridyl)pyrimidin-4-yl]amino]pyrimidin-2-yl]amino]-2-piperazin-1-yl-phenyl]acetate] yielded an IC50 [1] of 25.1 to 158 nM and a Ki [2] of at most 0.0316 nM.
Work on `Cc1cccc(-c2nccc(Nc3ccnc(Nc4ccc(CCN(C)C)cc4)n3)n2)n1` [Compound 253, N2-[4-[2-(dimethylamino)ethyl]phenyl]-N4-[2-(6-methyl-2-pyridyl)pyrimidin-4-yl]pyrimidine-2,4-diamine] yielded an IC50 [1] of 25.1 to 158 nM and a Ki [2] of 0.0398 to 0.316 nM.
For `COC(=O)[C@@H]1CN(Cc2ccc(Nc3nccc(Nc4ccnc(-c5cccc(C)n5)n4)n3)cc2)CCN1` [Compound 254, methyl (2S)-4-[[4-[[4-[[2-(6-methyl-2-pyridyl)pyrimidin-4-yl]amino]pyrimidin-2-yl]amino]phenyl]methyl] piperazine-2-carboxylate], the IC50 [1] was at most 20 nM and the Ki [2] was 0.0398 to 0.316 nM.
With `Cc1ccc(O)cc1-c1nccc(Nc2ccnc(Nc3ccc(N4CCC(N5CCN(C)CC5)CC4)cc3)n2)n1` [Compound 255, 4-methyl-3-(4-((2-((4-(4-(4-methylpiperazin-1-yl)piperidin-1-yl)phenyl)amino)pyrimidin-4-yl)amino)pyrimidin-2-yl)phenol] the IC50 [1] was 25.1 to 158 nM and the Ki [2] was 0.398 to 3.16 nM.
`Cc1cccc(-c2nccc(Nc3ccnc(Nc4nc(C(=O)OCC5CNC5)cs4)n3)n2)n1` [Compound 256, azetidin-3-ylmethyl 2-[[4-[[2-(6-methyl-2-pyridyl)pyrimidin-4-yl]amino]pyrimidin-2-yl]amino]thiazole-4-carboxylate] was tested, and the IC50 [1] was 200 to 1260 nM and the Ki [2] was 0.398 to 3.16 nM.
In the case of `Cc1cccc(-c2nccc(Nc3ccnc(Nc4cccc(C(=O)O[C@H]5CCNC5)c4)n3)n2)n1` [Compound 257, [(3S)-pyrrolidin-3-yl] 3-[[4-[[2-(6-methyl-2-pyridyl)pyrimidin-4-yl]amino]pyrimidin-2-yl]amino]benzoate], the IC50 [1] is reported as 25.1 to 158 nM and the Ki [2] is reported as 0.398 to 3.16 nM.
Work on `Cc1cccc(-c2nccc(Nc3ccnc(Nc4ccc(C(=O)OC5CNC5)s4)n3)n2)n1` [Compound 258, azetidin-3-yl 5-[[4-[[2-(6-methyl-2-pyridyl)pyrimidin-4-yl]amino]pyrimidin-2-yl]amino]thiophene-2-carboxylate] yielded an IC50 [1] of 25.1 to 158 nM and a Ki [2] of 0.0398 to 0.316 nM.
`Cc1cccc(-c2nccc(Nc3ccnc(Nc4ccc(NCCN)cc4)n3)n2)n1` [Compound 259, N2-[4-(2-aminoethylamino)phenyl]-N4-[2-(6-methyl-2-pyridyl)pyrimidin-4-yl]pyrimidine-2,4-diamine] gave an IC50 [1] of 25.1 to 158 nM and a Ki [2] of 0.0398 to 0.316 nM.
Compound `Cc1cccc(-c2nccc(Nc3ccnc(Nc4cccc(C(=O)OC5CNC5)c4)n3)n2)n1` [Compound 260, azetidin-3-yl 3-[[4-[[2-(6-methyl-2-pyridyl)pyrimidin-4-yl]amino]pyrimidin-2-yl]amino]benzoate] has an IC50 [1] of 25.1 to 158 nM and a Ki [2] of 0.0398 to 0.316 nM.
`CC(=O)N1CCN(c2ccc(Nc3nccc(Nc4ccnc(-c5cccc(C)n5)n4)n3)cc2)CC1` [Compound 261, 1-[4-[4-[[4-[[2-(6-methyl-2-pyridyl)pyrimidin-4-yl]amino]pyrimidin-2-yl]amino]phenyl]piperazin-1-yl]ethanone] showed an IC50 [1] of at most 20 nM and a Ki [2] of at most 0.0316 nM.
Work on `Cc1cccc(-c2nccc(Nc3ccnc(Nc4ccc(CN5CC(C)(N(C)C)C5)cc4)n3)n2)n1` [Compound 262, N2-[4-[[3-(dimethylamino)-3-methyl-azetidin-1-yl]methyl]phenyl]-N4-[2-(6-methyl-2-pyridyl)pyrimidin-4-yl]pyrimidine-2,4-diamine] yielded an IC50 [1] of 25.1 to 158 nM and a Ki [2] of 0.0398 to 0.316 nM.
Work on `Cc1cccc(-c2nccc(Nc3ccnc(Nc4ccc(NCCN5C[C@@H](C)N[C@@H](C)C5)cc4)n3)n2)n1` [Compound 263, N4-[2-(6-methyl-2-pyridyl)pyrimidin-4-yl]-N2-[4-[2-[rac-(3S,5R)-3,5-dimethylpiperazin-1-yl]ethylamino]phenyl] pyrimidine-2,4-diamine] yielded an IC50 [1] of 25.1 to 158 nM and a Ki [2] of 0.0398 to 0.316 nM.
Work on `Cc1cccc(-c2nccc(Nc3ccnc(Nc4ccc(S(=O)(=O)N5CCN(C(C)(C)C)CC5)cc4)n3)n2)n1` [Compound 264, N2-[4-(4-tert-butylpiperazin-1-yl)sulfonylphenyl]-N4-[2-(6-methyl-2-pyridyl)pyrimidin-4-yl]pyrimidine-2,4-diamine] yielded an IC50 [1] of 25.1 to 158 nM and a Ki [2] of 0.0398 to 0.316 nM.
Compound `Cc1cccc(-c2nccc(Nc3ccnc(Nc4ccc(NC(=O)C5CCNCC5)c(C)c4)n3)n2)n1` [Compound 265, N-[2-methyl-4-[[4-[[2-(6-methyl-2-pyridyl)pyrimidin-4-yl]amino]pyrimidin-2-yl]amino]phenyl]piperidine-4-carboxamide] has an IC50 [1] of at most 20 nM and a Ki [2] of 0.0398 to 0.316 nM.
`Cc1cccc(-c2nccc(Nc3ccnc(Nc4ccc(N5CCN(C)CC5)cn4)n3)n2)n1` [Compound 267, N2-[5-(4-methylpiperazin-1-yl)-2-pyridyl]-N4-[2-(6-methyl-2-pyridyl)pyrimidin-4-yl]pyrimidine-2,4-diamine] was tested, and the IC50 [1] was 25.1 to 158 nM and the Ki [2] was 0.398 to 3.16 nM.
Compound `COC(=O)[C@H]1CN(Cc2ccc(Nc3nccc(Nc4ccnc(-c5cccc(C)n5)n4)n3)cc2)CCN1` [Compound 268, methyl (2R)-4-[[4-[[4-[[2-(6-methyl-2-pyridyl)pyrimidin-4-yl]amino]pyrimidin-2-yl]amino]phenyl]methyl] piperazine-2-carboxylate] has an IC50 [1] of at most 20 nM and a Ki [2] of 0.0398 to 0.316 nM.
